Measured values reported in ChEMBL document CHEMBL2203160, “PPARγ agonist from Chromolaena odorata” (J Nat Prod, 2012).
pIC50: −log10 of the molar value.

Experiments:
PC-6 = assay: Cytotoxicity against human PC6 cells by MTT assay; format: functional, cell-based
[1] = Cytotoxicity against human U251SP cells by MTT assay; format: functional, cell-based

SMILES	pIC50 (PC-6)	pIC50 [1]
COc1c(O)cc2c(c1OC)C(=O)c1ccc(C)cc1C2=O	4.28	
COc1cc(O)c(C(=O)/C=C/c2ccc(O)cc2)c(OC)c1OC		4.03
